Where “and” joins values, the source holds several entries; their conditions need not be identical. Identical values can stand only once. Toxic doses and inconclusive results are not listed. Rule for the calls: active = survival T/C of 150% or more; inactive = T/C below 125% in these data.
System: P388 leukemia ip, CD2F1 mice, survival T/C
Experiment: NCI In Vivo Anticancer Drug Screen. Data for tumor model P388 Leukemia (intraperitoneal) in CD2F1 (CDF1) mice
Conditions: endpoint: median survival time, higher = longer survival
Procedure, shortened: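 Mice carrying the transplanted tumor received test compound or vehicle. Survival was recorded in each group, and the value is the treated-group measurement divided by that of the vehicle-treated control group.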

[1] = dose: 50.0 mg/kg/injection, schedule: Q01DX009 (ip), vehicle: saline with Tween-80
[2] = dose: 100.0 mg/kg/injection, schedule: Q01DX009 (ip), vehicle: saline with Tween-80
[3] = dose: 200.0 mg/kg/injection, schedule: Q01DX009 (ip), vehicle: saline with Tween-80
[4] = dose: 100.0 mg/kg/injection, schedule: Q01DX001 (ip), vehicle: Klucel (hydroxypropylcellulose) (HPC)
[5] = dose: 50.0 mg/kg/injection, schedule: Q01DX005 (ip), vehicle: saline with Tween-80
[6] = dose: 100.0 mg/kg/injection, schedule: Q01DX005 (ip), vehicle: saline with Tween-80
[7] = dose: 200.0 mg/kg/injection, schedule: Q01DX005 (ip), vehicle: saline with Tween-80
[8] = dose: 50.0 mg/kg/injection, schedule: Q01DX005 (ip), vehicle: Klucel (hydroxypropylcellulose) (HPC)
[9] = dose: 100.0 mg/kg/injection, schedule: Q01DX005 (ip), vehicle: Klucel (hydroxypropylcellulose) (HPC)
[10] = dose: 200.0 mg/kg/injection, schedule: Q01DX005 (ip), vehicle: Klucel (hydroxypropylcellulose) (HPC)
[11] = dose: 200.0 mg/kg/injection, schedule: Q04DX003 (ip), vehicle: saline with Tween-80
[12] = dose: 25.0 mg/kg/injection, schedule: Q01DX005 (ip), vehicle: saline

Measured: T/C

NC(=S)N/N=C\C(=O)c1cccc(O)c1
inactive: [1] 99 % of control | [2] 100 % of control | [3] 105 % of control

CCCCCCCCCCCCC1=C(OC)C(NC(=O)CCCCCCCCCCC)=CC(=O)C1=O
inactive: dose: 50.0 mg/kg/injection, schedule: Q01DX001 (ip), vehicle: Klucel (hydroxypropylcellulose) (HPC) 92 % of control | [4] 88 % of control | dose: 200.0 mg/kg/injection, schedule: Q01DX001 (ip), vehicle: Klucel (hydroxypropylcellulose) (HPC) 90 % of control

Clc1ccc(-n2cnn3c(-c4ccccc4)ncc23)cc1
inactive: dose: 100.0 mg/kg/injection, schedule: Q04DX002 (ip), vehicle: saline with Tween-80 90 % of control | dose: 200.0 mg/kg/injection, schedule: Q04DX002 (ip), vehicle: saline with Tween-80 87 % of control | dose: 400.0 mg/kg/injection, schedule: Q04DX002 (ip), vehicle: saline with Tween-80 93 % of control

O=C(NO)/C(CC(=O)c1cccc(O)c1)=N\O
inactive: dose: 60.0 mg/kg/injection, schedule: Q01DX005 (ip), vehicle: saline 99 % of control | dose: 120.0 mg/kg/injection, schedule: Q01DX005 (ip), vehicle: saline 100 % of control | dose: 240.0 mg/kg/injection, schedule: Q01DX005 (ip), vehicle: saline 105 % of control

CCOC(=O)CN(C)C(c1ccccc1)c1cccs1 (stereo not drawn)
inactive: dose: 100.0 mg/kg/injection, schedule: Q04DX002 (ip), vehicle: Klucel (hydroxypropylcellulose) (HPC) 102 % of control | dose: 200.0 mg/kg/injection, schedule: Q04DX002 (ip), vehicle: Klucel (hydroxypropylcellulose) (HPC) 105 % of control

Oc1cc(O)cc(/C=C/c2ccccc2)c1
inactive: dose: 50.0 mg/kg/injection, schedule: Q01DX005 (ip), vehicle: water 107 % of control | dose: 100.0 mg/kg/injection, schedule: Q01DX005 (ip), vehicle: water 101 % of control

O=C(/C=C/c1ccccc1O)c1ccccc1
inactive: [1] 97 % of control | [2] 102 % of control | [3] 108 % of control

NC1CCCCCCC1O (stereo not drawn)
inactive: dose: 5.0 mg/kg/injection, schedule: Q01DX009 (ip), vehicle: saline with Tween-80 104 % of control | dose: 5.0 mg/kg/injection, schedule: Q04DX003 (ip), vehicle: saline 104 % of control | dose: 10.0 mg/kg/injection, schedule: Q01DX009 (ip), vehicle: saline with Tween-80 100 % of control | dose: 10.0 mg/kg/injection, schedule: Q04DX003 (ip), vehicle: saline 100 % of control | dose: 20.0 mg/kg/injection, schedule: Q01DX009 (ip), vehicle: saline with Tween-80 104 % of control | dose: 20.0 mg/kg/injection, schedule: Q04DX003 (ip), vehicle: saline 100 % of control

COC(=O)/C=C1/C2C=CC(O2)C1C(=O)OC (stereo not drawn)
inactive: [5] 96 % of control | [6] 99 % of control | [7] 97 % of control

COC1C2=C(CCCC2)OC(=O)C1(Cl)c1ccccc1 (stereo not drawn)
inactive: [8] 96 % of control | [9] 101 % of control | [10] 101 % of control

O=C(O)C1CSCN1 (stereo not drawn)
inactive: dose: 6.25 mg/kg/injection, schedule: Q01DX009 (ip), vehicle: water 90 % of control and 96 % of control | dose: 12.5 mg/kg/injection, schedule: Q01DX009 (ip), vehicle: water 99 % of control and 96 % of control | dose: 25.0 mg/kg/injection, schedule: Q01DX009 (ip), vehicle: water 98 % of control and 99 % of control | dose: 50.0 mg/kg/injection, schedule: Q01DX009 (ip), vehicle: water 98 % of control and 95 % of control | dose: 100.0 mg/kg/injection, schedule: Q01DX009 (ip), vehicle: water 100 % of control | dose: 200.0 mg/kg/injection, schedule: Q01DX009 (ip), vehicle: water 96 % of control

Cc1ccc(NC(=O)C(Cl)(Cl)Cl)cc1[N+](=O)[O-]
inactive: dose: 100.0 mg/kg/injection, schedule: Q04DX003 (ip), vehicle: saline with Tween-80 104 % of control | [11] 100 % of control | dose: 400.0 mg/kg/injection, schedule: Q04DX003 (ip), vehicle: saline with Tween-80 100 % of control

O=C1CN(CN2CCOCC2)C(=O)CN1CN1CCOCC1
inactive: dose: 25.0 mg/kg/injection, schedule: Q01DX009 (ip), vehicle: saline 115 % of control | dose: 50.0 mg/kg/injection, schedule: Q01DX009 (ip), vehicle: saline 114 % of control

O=C(O)/C(O)=C/c1ccccc1
inactive: dose: 25.0 mg/kg/injection, schedule: Q04DX003 (ip), vehicle: saline with Tween-80 102 % of control | [11] 111 % of control

CN1CCN(CC2C3CCC(C3)C2O)CC1 (stereo not drawn)
inactive: [12] 100 % of control | dose: 50.0 mg/kg/injection, schedule: Q01DX005 (ip), vehicle: saline 97 % of control | dose: 100.0 mg/kg/injection, schedule: Q01DX005 (ip), vehicle: saline 96 % of control | dose: 200.0 mg/kg/injection, schedule: Q01DX005 (ip), vehicle: saline 99 % of control

CC1N=NNN1C (stereo not drawn)
inactive: [5] 109 % of control | [6] 109 % of control | [7] 100 % of control

O=C1c2ccccc2C(=O)c2c1ccc1c2CCC1
inactive: dose: 7.5 mg/kg/injection, schedule: Q01DX009 (ip), vehicle: saline with Tween-80 97 % of control | dose: 15.0 mg/kg/injection, schedule: Q01DX009 (ip), vehicle: saline with Tween-80 95 % of control | dose: 30.0 mg/kg/injection, schedule: Q01DX009 (ip), vehicle: saline with Tween-80 105 % of control

O=C(N/C(=C/c1ccc(Cl)cc1Cl)c1nc2ccccc2s1)c1ccccc1
inactive: [5] 109 % of control | [6] 111 % of control

C[CH2][Sn]([CH2]C)([S]CCS(=O)(=O)O)[S]CCS(=O)(=O)O
inactive: dose: 0.93 mg/kg/injection, schedule: Q01DX005 (ip), vehicle: saline 95 % of control | dose: 1.87 mg/kg/injection, schedule: Q01DX005 (ip), vehicle: saline 95 % of control

N#CC(c1ccc2c(c1)OCO2)N1CCCC1 (stereo not drawn)
inactive: dose: 12.5 mg/kg/injection, schedule: Q01DX001 (ip), vehicle: Klucel (hydroxypropylcellulose) (HPC) 108 % of control | dose: 25.0 mg/kg/injection, schedule: Q01DX001 (ip), vehicle: Klucel (hydroxypropylcellulose) (HPC) 108 % of control | [4] 100 % of control | dose: 400.0 mg/kg/injection, schedule: Q01DX001 (ip), vehicle: Klucel (hydroxypropylcellulose) (HPC) 99 % of control

Cn1cccc1C1NC(=O)C(c2cccn2C)NC1=O (stereo not drawn)
inactive: [8] 95 % of control | [9] 96 % of control | [10] 92 % of control

O=C1C[C@@H]2OCC=C3C[N+]4([O-])CC[C@]56c7ccccc7N1[C@H]5[C@H]2[C@H]3C[C@@H]64 (stereo partly drawn)
inactive: dose: 12.5 mg/kg/injection, schedule: Q01DX005 (ip), vehicle: saline 95 % of control | [12] 88 % of control

CC(=O)OC1=CC(=O)N(C(=O)c2ccc(Cl)cc2)C1
inactive: dose: 50.0 mg/kg/injection, schedule: Q01DX009 (ip), vehicle: Klucel (hydroxypropylcellulose) (HPC) 109 % of control | dose: 100.0 mg/kg/injection, schedule: Q01DX009 (ip), vehicle: Klucel (hydroxypropylcellulose) (HPC) 115 % of control | dose: 200.0 mg/kg/injection, schedule: Q01DX009 (ip), vehicle: Klucel (hydroxypropylcellulose) (HPC) 115 % of control

O=C1c2cccc(O)c2C(=O)c2c1cc(CO)c(-c1c(CO)cc3c(c1O)C(=O)c1c(O)cccc1C3=O)c2O
inactive: dose: 3.75 mg/kg/injection, schedule: Q01DX005 (ip), vehicle: Klucel (hydroxypropylcellulose) (HPC) 98 % of control | dose: 7.5 mg/kg/injection, schedule: Q01DX005 (ip), vehicle: Klucel (hydroxypropylcellulose) (HPC) 100 % of control | dose: 15.0 mg/kg/injection, schedule: Q01DX005 (ip), vehicle: Klucel (hydroxypropylcellulose) (HPC) 99 % of control

Reference: PubChem BioAssay AID330 (DTP/NCI, 2004)
